Several values for one entry are separate records, joined by “and”; a condition that tells them apart may be missing. Equal values may be shown once. Read-outs that look alike come from different tables or passages of the source.

The term IC50 denotes the point on the concentration scale where inhibition reaches its midpoint.

The test system of assay [1] is IL-1β-stimulated NO production, bovine chondrocyte pellets / ARC tissues. Briefly: chondrocyte pellet culture model: total nitrite/nitrate (NO). The format is cell-based. To be noted: for NO production: 10 ng/ml IL-1β. An excerpt: (§1) Calf articular cartilage was obtained from the knee joints of eight to twelve month old animals and was processed within twenty-four hours after sacrifice. After removal of muscle and ligament, the cartilage was kept moist using phosphate buffer solution (PBS) to prevent tissue dehydration, and was aseptically peeled off from subchondral bone with a scalpel, and the cartilage pieces were further minced into smaller pieces (˜0.3-0.5×˜0.2-0.5 cm cubes). […] Chondrocytes were then enzymatically isolated from the tissue by incubation for overnight at 37° C. with gentle agitation in 0.2% collagenase in Dulbecco's modified eagle media (DMEM). After removal of tissue debris by filtration through cell strainer and the residual collagenase by 3× wash in PBS, cells were finally resuspended at a density of 2.5×10^6 cells/ml in chondrocyte medium. A 1 ml aliquot of the cell suspension was dispensed into either a 15 ml Falcon centrifuge tube or a 96 deep-well plate and centrifuged at 2000×g for five minutes. The chondrocyte pellets were incubated at 37° C. in a humidified atmosphere of 5% CO2 for two to three weeks with a medium change every other day.
(§2) As an alternative to using calf articular cartilage, a commercial Alginate Recovered Chondrocytes (ARC) system was also used (Articular Engineering, LLC (Northbrook, Ill.)). Use of the commercial system cut down on labor and time in producing chondrocyte pellet. This system produced cartilaginous tissue in vitro using bovine chondrocytes. The first step consisted of culturing chondrocytes in alginate under conditions optimal for the formation of a cell-associated matrix (CM). The second step allowed these cells with their CM, after recovery, to rapidly form and become integrated into a solid mass of cartilage on a porous insert within two weeks. This tissue is rich in cells surrounded by a cell-associated matrix that is degraded rapidly when the cells are exposed to IL-1. ARC tissues in 3 mm punches at delivery were first dispensed into a 96 deep-well plate, one punch per well, for compound treatment. The subsequent procedures were the same as those used for the chondrocyte pellets.
(§3) Chondrocyte pellets were washed once with 1 ml of Chondrocyte Stimulation Medium and equilibrated in the same medium at room temperature for fifteen to thirty minutes. Compounds were dissolved in H2O, Ethanol or dimethyl sulfoxide (DMSO) (10^−2 M) according to suppliers' instructions and further diluted with Chondrocyte Stimulation Medium to the required concentrations. DMSO concentrations in the culture media should not exceed 1%; this concentration of DMSO has no effect on cartilage proteoglycan metabolism in response to cytokines.
(§4) The pellets were first treated with compounds at desired concentrations at 37° C. for one hour and then incubated for three to five days in the absence or presence of 10 ng/ml of IL-1β. At the end of the incubation, media and pellets were harvested and frozen for further analysis. Pellets were also fixed as needed in 4% (w/v) paraformaldehyde in PBS for histology analysis.
Nitrate/Nitrite levels were measured using the Griess reaction (Green L. C. et al., “Analysis of Nitrate, Nitrite, and [15N]nitrate in Biological Fluids,” Anal. Biochem. 126: 131-138 (1982)) with aNitrate/Nitrite Colorimetric Assay Kit (Cayman Chemicals), the contents of which are incorporated herein by reference. The assay involved a simple two-step process. The first step involved conversion of nitrate in 50 μl of culture medium to nitrite utilizing nitrate reductase in a reaction volume of 100 μl at room temperature for two hours. The second step involved the addition of 50 μl of both Griess Reagent 1 and 2, which converted nitrite into a deep purple azo compound in ten minutes. Photometric measurement of the absorbance at 540 or 550 nm due to this azo chromophore accurately determined nitrite concentration. […]

Assay [2] concerns IL-1β-stimulated PGE2 synthesis, bovine chondrocyte pellets / ARC tissues. As to the kind of experiment: chondrocyte pellet culture model: PGE2. As to conditions: for PGE2 synthesis: 10 ng/ml IL-1β. The format is cell-based.
Text: as §1, §2, §3, §4
Prostaglandin E2 (PGE2) was measured with a STAT-Prostaglandin E2 EIA ELISA kit (Cayman Biochemicals). This assay is based on the competition between PGE2 from 50 μl samples and a PGE2-alkaline phosphatase conjugate for a limited amount of PGE2 monoclonal antibody in a reaction volume of 150 μl at room temperature for one hour. The antibody-PGE2 complex bound to a goat polyclonal anti-mouse IgG that had been previously attached to the well. After washing to remove any unbound reagents, para-nitrophenyl phosphate (pNPP) was added to the well. The product of this enzymatic reaction absorbs strongly at 412 nm. Because of the large range in response to IL-1β and other cytokines, PGE2 values were converted to log scale prior to doing t-tests.

For assay [3], the system named is rabbit anterior cruciate ligament transection (ACLT) model of osteoarthritis. As to the kind of experiment: ACLT model, preventative dosing regimen (Example IX). The format is in vivo. On the set-up: key to Trochlear Groove Erosion of Cartilage, mean score / Tibial Plateau # of Osteophytes (Medial), mean score: gross grading scale; higher score = more joint damage; key to All Condylar Effects (0-18), mean: score 0-18; higher = more joint damage. As for the experimental part:
130 Female New Zealand white rabbits underwent ACLT on the right knee. Intra-articular injections were administered to the operated knee once per week for five weeks beginning either one or six weeks after the ACLT. All animals were euthanized one week after the administration of the fifth injection. Gross observations were made on the knee joints according to a predetermined grading scale. The stifle joints were removed. Samples were preserved in 10% neutral buffered formalin. The stifle joints were photographed using high-resolution photography.
The ACLT was performed according to the ACLT model discussed above. Animals were group housed in pens on the floor and left untreated for one week to allow healing of the surgical site. Then, once weekly for five weeks, intra-articular injections were administered. One week following the last injection, the animals were sacrificed. The total in-life portion of the preventative dosing regimen was […]. Previous studies have confirmed that the six week time-point allows sufficient degeneration changes to occur.
The study design consisted of an n=10 per group. A total of 160 μl was injected at each administration.
At the time of sacrifice the following parameters were evaluated grossly (the scale follows in parenthesis):
Each parameter was given a score. The combination of all parameters gave a Total Score (0-52). Additionally, combinations of the three subsets of data yielded scores for All Trochlear Groove Effects (0-10), All Condylar Effects (0-18) and All Tibial Plateau Effects (0-24). […] […] The grades that compose this parameter are trochlear groove thickness and erosion, all the grades in All Condylar Effects, and all grades listed under Tibial Plateau. A higher score indicates more damage to the joint. A lower score indicates less damage or more cartilage preservation in the joint. Individual results for each parameter assessed were tabulated.

Setting [4] is: diacerein at 5.4 μM, rhein at 0.35 μM.

On to `CC(=O)Oc1cccc2c1C(=O)c1c(OC(C)=O)cc(C(=O)O)cc1C2=O` [Diacerein, reference compound], for which the “NO production” value in assay [1] (setting [4]) is on record as “significantly inhibited”. The “PGE2 synthesis” value in assay [2] (setting [4]) was “no effect”.

On to `OCCC#Cc1nc(-c2ccc(F)cc2)c(-c2ccncc2)n1CCCc1ccccc1` [JNJ 3026582 (RWJ 67657), 4-[4-(4-fluorophenyl)-1-(3-phenylpropyl)-5-(4-pyridinyl)-1H-imidazol-2-yl]-3-butyn-1-ol], for which, in assay [3], the “All Cartilage Effects (0-40), mean” value was 4.3+1.8 and 4.3; the “All Condylar Effects (0-18), mean” value was 1.6 ± 1.3 and 1.6; the “All Tibial Plateau Effects (0-24), mean” value stood at 3.7; the “All Trochlear Groove Effects (0-10), mean” value (from here on “All Trochlear Groove Effects”) was found to be 6.6. Also, in assay [3], the “Femoral Condyle % Surface Area Erosion (Lateral), mean score” value was 0.4 ± 0.3 and 0.4; the “Femoral Condyle % Surface Area Erosion (Medial), mean score” value was 0.5 ± 0.4 and 0.5; the “Femoral Condyle Depth of Erosion (Lateral), mean score” value is 0.4 ± 0.3 and 0.4; the “Femoral Condyle Depth of Erosion (Medial), mean score” value was 0.3+0.3 and 0.3. In assay [3], the “Femoral Condyle Presence of Clefts, mean score” value (shortened to “Femoral Condyle Presence”) is 0; the “Tibial Plateau # of Osteophytes (Lateral), mean score” value was determined as 0.6; the “Tibial Plateau # of Osteophytes (Medial), mean score” value worked out at 1.7; the “Tibial Plateau % Surface Area Erosion (Lateral), mean score” value is 0.7. In assay [3], the “Tibial Plateau % Surface Area Erosion (Medial), mean score” value was found to be 0; the “Tibial Plateau Depth of Erosion (Lateral), mean score” value worked out at 0.7; the “Tibial Plateau Depth of Erosion (Medial), mean score” value came to 0; the “Tibial Plateau Presence of Clefts (Lateral), mean score” value is reported as 0. For the same compound, in assay [3], the “Tibial Plateau Presence of Clefts (Medial), mean score” value worked out at 0; the “Total Score (0-52), mean” value was 11.9 ± 2.2 and 11.9; the “Trochlear Groove # of Osteophytes, mean score” value (from here on “Trochlear Groove #”) turned out to be 2.8; the “Trochlear Groove Erosion of Cartilage, mean score” value (“Trochlear Groove Erosion” for short) is reported as 1.3. Besides, in assay [3], the “Trochlear Groove Osteophyte Size, mean score” value was determined as 2.5 and the “Trochlear Groove Thickening, mean score” value is 0.

Turning to `C[C@H](Nc1nccc(-c2c(-c3ccc(F)cc3)nc3nc(N)ccn23)n1)c1ccccc1` [JNJ 7583979 (RWJ 351958)], the “NO production” value in assay [1] (ARC) is reported as “significantly inhibited”. Moreover, the “PGE2 synthesis” value in assay [2] (ARC) is “significantly inhibited”.

Take `CC(=O)N1CCN(c2c(-c3ccncc3)c(-c3ccc(F)cc3)c(C#N)n2C)CC1` [JNJ 17089540 (RWJ 669307)]: in assay [1] (Pellet Assay, read-out: NO Inhibition IC50), the IC50 was 4.9 µM. Also, the IC50 in assay [1] (bovine ARC, 7.5 ng/ml IL-1β, five days, read-out: NO IC50) turned out to be 4.92 µM. Further, in assay [3], the “All Cartilage Effects (0-40), mean” value was 5.8+2.0 and 5.8; the “All Condylar Effects (0-18), mean” value was 2.7 ± 1.3 and 2.7; the “All Tibial Plateau Effects (0-24), mean” value is reported as 4.1; the “All Trochlear Groove Effects” value came out at 6.2. In addition, in assay [3], the “Femoral Condyle % Surface Area Erosion (Lateral), mean score” value worked out at 1.2; the “Femoral Condyle % Surface Area Erosion (Medial), mean score” value was 0.3+0.3 and 0.3; the “Femoral Condyle Depth of Erosion (Lateral), mean score” value was 0.2+0.2 and 0.2; the “Femoral Condyle Depth of Erosion (Medial), mean score” value was 0.2+0.2 and 0.2. Further, in assay [3], the “Femoral Condyle Presence” value was determined as 0; the “Tibial Plateau # of Osteophytes (Lateral), mean score” value is listed as 0.4; the “Tibial Plateau # of Osteophytes (Medial), mean score” value is 1.4; the “Tibial Plateau % Surface Area Erosion (Lateral), mean score” value came out at 1.3. In assay [3], the “Tibial Plateau % Surface Area Erosion (Medial), mean score” value was determined as 0; the “Tibial Plateau Depth of Erosion (Lateral), mean score” value was determined as 0.8; the “Tibial Plateau Depth of Erosion (Medial), mean score” value was found to be 0; the “Tibial Plateau Presence of Clefts (Lateral), mean score” value was determined as 0. Also, in assay [3], the “Tibial Plateau Presence of Clefts (Medial), mean score” value is 0; the “Total Score (0-52), mean” value was 12.9 ± 2.3 and 12.9; the “Trochlear Groove #” value turned out to be 2.6; the “Trochlear Groove Erosion” value is listed as 1.0. Further, in assay [3], the “Trochlear Groove Osteophyte Size, mean score” value was found to be 2.7 and the “Trochlear Groove Thickening, mean score” value turned out to be 0. The IC50 in assay [2] (Pellet Assay, read-out: PGE2 Inhibition IC50) turned out to be 29.6 µM. The IC50 in assay [2] (bovine ARC, 7.5 ng/ml IL-1β, five days, read-out: PGE2 IC50) turned out to be 29.6 µM.

On to `CC(C(=O)O)c1ccc(C(=O)c2cccs2)cc1` (centres unmarked) [Suprofen, reference compound], for which, in assay [3], the “All Cartilage Effects (0-40), mean” value was determined as 6.8; the “All Condylar Effects (0-18), mean” value was found to be 4.1; the “All Tibial Plateau Effects (0-24), mean” value is recorded as 3.1; the “All Trochlear Groove Effects” value is reported as 7.1. For the same compound, in assay [3], the “Femoral Condyle % Surface Area Erosion (Lateral), mean score” value was 2.1; the “Femoral Condyle % Surface Area Erosion (Medial), mean score” value was 0.1+0.1 and 0.1; the “Femoral Condyle Depth of Erosion (Lateral), mean score” value was 1.6; the “Femoral Condyle Depth of Erosion (Medial), mean score” value was 0.3+0.3 and 0.3. Besides, in assay [3], the “Femoral Condyle Presence” value amounted to 0; the “Tibial Plateau # of Osteophytes (Lateral), mean score” value was 0.5; the “Tibial Plateau # of Osteophytes (Medial), mean score” value came out at 1.1; the “Tibial Plateau % Surface Area Erosion (Lateral), mean score” value was 0.9. Moreover, in assay [3], the “Tibial Plateau % Surface Area Erosion (Medial), mean score” value is given as 0; the “Tibial Plateau Depth of Erosion (Lateral), mean score” value is 0.5; the “Tibial Plateau Depth of Erosion (Medial), mean score” value came out at 0; the “Tibial Plateau Presence of Clefts (Lateral), mean score” value came out at 0. Moreover, in assay [3], the “Tibial Plateau Presence of Clefts (Medial), mean score” value stood at 0; the “Total Score (0-52), mean” value worked out at 14.1; the “Trochlear Groove #” value was determined as 2.8; the “Trochlear Groove Erosion” value is reported as 1.5. In addition, in assay [3], the “Trochlear Groove Osteophyte Size, mean score” value is reported as 2.8 and the “Trochlear Groove Thickening, mean score” value is listed as 0.

The record behind these values is patent US8986696B2, “Trans-capsular administration of p38 map kinase inhibitors into orthopedic joints” (DePuy Mitek, Inc., priority 2007, dated 2015).
